Laboratory results as given in patent publication US20250228865A1, “COMPOUNDS FOR ENHANCING READ THROUGH OF GENES CONTAINING PREMATURE TERMINATION CODONS AND METHODS FOR MAKING AND USING THE SAME” (Sanofi US Services Inc., priority 2022, published 2025).

Tested on: recombinant human CFTR carrying the premature stop codon (PTC) mutation R1162X
Assay: CFTR-PTC mutant translation readthrough, Nanoluc tagged CFTR luminescence (R1162X cell line)
Assay type: cell-based
Conditions: for CFTR R1162X ACTIVITY Fold 10 μM G-418: fold over 10 μM G-418, in combination with G418; for EC50: in combination with G418, 16HBE cells, read-out: CFTR R1162X ACTIVITY EC50
Method: 16HBE human bronchial epithelial cells (stably over-expressing recombinant human CFTR carrying the premature stop codon (PTC) mutation G542X or R1162X along with a Nanoluc tag incorporated into the CFTR channel within extracellular loop 4 in G542X cell line or C-terminus end in the R1162X cell line were seeded at 0.01×10^6 cells/well and grown in Minimal Essential Medium (MEM) as monolayers in 384 well plates and incubated at 37° C. with 5% CO2. Media was changed every other day until day of experiment. Agents to be evaluated were made up in separate 384 well, polypropylene plates at a 2X the final desired test concentration. Test agent 10-point concentration response curves were constructed using the Labcyte Echo 555 acoustic dispenser. Test agents were typically tested at a max final test concentrations of 50 μM with sequential 2-fold lower concentrations below this in the absence or presence of a fixed 10 μM concentration of the aminoglycoside G418 made up in MEM growth media (reduced Serum Media+HEPES Buffer+2.4 g/L Sodium Bicarbonate+L-Glutamine containing CFTR corrector VX-809 (3 μM)). Treatment with 10 μM G418 alone produced approximately 10% of the response observed with a maximally effective concentration of G418 (typically 125-250 μM). Test agent effects in presence of 10 μM G418 were compared to control wells on the plate containing a maximally effective concentration of G418 (typically 125-250 μM) made up in the same media. 25 ul of test agents/control solutions were transferred from the compound plate to the cell plate, which already contained 25 ul/well of cell plating media, using an Integra Viaflo 384. Cell plates were incubated with the compounds for 48 hours, at which time they were processed using Nanoluc luminescence Kit (Promega Nano-Glo Live Cell Assay System) to measure CFTR-PTC mutant translation readthrough. Luminescence was measured as follows. Cell plates were removed from the incubator and allowed to equilibrate to room temperature for 20 minutes. Media was removed from all wells and the plates were blotted to remove excess remaining volume. Nano-Glo Live Cell Substrate was diluted 1:20 in the appropriate amount of Nano-Glo LCS Dilution Buffer to accommodate the number of cell plates being tested. The substrate/dilution buffer mix was then diluted 1:3 with MEM media to make the appropriate volume for the number of plates being tested. The substrate/dilution buffer/OptiMEM mix was added across the Nanoluc testing cell plates and the plates were read for luminescence signal immediately. Test agent effects on CFTR translation readthrough was determined by normalizing any observed increase in luminescence induced by 48 hours pretreatment with test compound to the magnitude of luminescence increase produced by pretreatment with a maximally effective concentration of the reference readthrough enhancing agent G418 (125-250 μM).

EC50 [µM]	Structure (SMILES)	CFTR R1162X ACTIVITY Fold 10 μM G-418
1 to 10	O=C1CN(c2cnc(OCc3c(Cl)cccc3C(F)(F)F)cn2)C(=O)N1	C′ (C′ = <5X)
< 1	Cc1cccc(C(F)(F)F)c1COc1cnc(-n2ccc(C(N)=O)n2)nc1	C′ (C′ = <5X)
< 1	NC(=O)c1ccn(-c2ncc(OCc3c(C(F)(F)F)cccc3C(F)(F)F)cn2)n1	A′ (A′ = ≥10X)
< 1	Cc1ccc(F)c(C(F)(F)F)c1COc1ccc(-n2cnc(CO)n2)cc1	A′ (A′ = ≥10X)
1 to 10	OCc1ncn(-c2ncc(OCc3c(C(F)(F)F)ccc(F)c3Cl)cn2)n1	A′ (A′ = ≥10X)
< 1	OCc1ncn(-c2ccc(OCc3c(C(F)(F)F)ccc(F)c3Cl)cn2)n1	C′ (C′ = <5X)
< 1	OCc1cn(-c2ncc(OCc3c(C(F)(F)F)ccc(F)c3Cl)cn2)cn1	C′ (C′ = <5X)
< 1	OCc1ccn(-c2ncc(OCc3c(C(F)(F)F)cccc3C(F)(F)F)cn2)n1	A′ (A′ = ≥10X)
1 to 10	OCc1cn(-c2ncc(OCc3c(Cl)ccc(F)c3Cl)cn2)nn1	C′ (C′ = <5X)
< 1	OCc1cn(-c2ncc(OCc3c(Cl)ccc(F)c3Cl)cn2)cn1	C′ (C′ = <5X)
< 1	OCc1ncn(-c2ncc(OCc3c(Cl)ccc(F)c3C(F)(F)F)cn2)n1	A′ (A′ = ≥10X)
< 1	OCc1cnn(-c2ncc(OCc3c(Cl)ccc(F)c3Cl)cn2)n1	C′ (C′ = <5X)
< 1	O=C1N[C@H](CO)CN1c1ccc(OCc2c(Cl)cccc2C(F)(F)F)cn1	C′ (C′ = <5X)
1 to 10	CCc1cccc(C(F)(F)F)c1COc1cnc(N2C[C@@H](CO)NC2=O)nc1	C′ (C′ = <5X)
< 1	O=C1N[C@H](CO)CN1c1ccc(OCc2c(C(F)(F)F)cccc2C(F)(F)F)cn1	C′ (C′ = <5X)
< 1	O=C1CN(c2ccc(OCc3c(C(F)(F)F)cccc3C(F)(F)F)cn2)C(=O)N1 [1-(5-{[2,6-bis(trifluoromethyl)phenyl]methoxy}pyridin-2-yl)imidazolidine-2,4-dione]	A′ (A′ = ≥10X)
1 to 10	O=C1OC(CO)CN1c1ccc(OCc2c(Cl)ccc(F)c2Cl)cn1 (centres unmarked) [3-{5-[(2,6-dichloro-3-fluorophenyl)methoxy]pyridin-2-yl}-5-(hydroxymethyl)-1,3-oxazolidin-2-one]	C′ (C′ = <5X)
< 1	O=C1CN(c2ccc(OCc3c(Cl)cccc3Cl)cn2)C(=O)N1 [Compound 332, 1-{5-[(2,6-dichlorophenyl)methoxy]pyridin-2-yl}imidazolidine-2,4-dione]	C′ (C′ = <5X)
< 1	O=C1CN(c2ccc(OCc3c(Cl)ccc(F)c3Cl)cn2)C(=O)N1 [Compound 341, 1-{5-[(2,6-dichloro-3-fluorophenyl)methoxy]pyridin-2-yl}imidazolidine-2,4-dione]	C′ (C′ = <5X)
1 to 10	O=C1CN(c2ccc(OCc3c(Cl)cc(F)cc3Cl)cn2)C(=O)N1 [Compound 349, 1-{5-[(2,6-dichloro-4-fluorophenyl)methoxy]pyridin-2-yl}imidazolidine-2,4-dione]	C′ (C′ = <5X)
< 1	O=C1CN(c2ncc(OCc3c(Cl)cccc3C(F)(F)F)cn2)C1 [Compound 355, 1-(5-{[2-chloro-6-(trifluoromethyl)phenyl]methoxy}pyrimidin-2-yl)azetidin-3-one]	A′ (A′ = ≥10X)

The remaining lines, values behind:

Structure (SMILES)	EC50 [µM]	CFTR R1162X ACTIVITY Fold 10 μM G-418
O=C1CN(c2ccc(OCc3c(C(F)(F)F)ccc(F)c3Cl)cn2)C(=O)N1	< 1	C′ (C′ = <5X)
N#CC1(O)CN(c2ncc(OCc3c(Cl)cccc3C(F)(F)F)cn2)C1	< 1	A′ (A′ = ≥10X)
O=C1CN(c2ccc(OCc3c(Cl)ccc(F)c3C(F)(F)F)cn2)C(=O)N1	< 1	A′ (A′ = ≥10X)
Cc1cccc(C(F)(F)F)c1COc1cnc(N2CCN(C)[C@@H](CN)C2)nc1	> 10	C′ (C′ = <5X)
CC(=O)N1CCN(c2ncc(OCc3c(Cl)cccc3C(F)(F)F)cn2)C[C@@H]1CN	1 to 10	B′ (B′ = ≥5X to <10X)
O=C1OC(CO)CN1c1ncc(OCc2c(Cl)ccc(F)c2Cl)cn1 (centres unmarked)	1 to 10	C′ (C′ = <5X)
FC(F)(F)c1cccc(Cl)c1COc1cnc(N2CCn3c(nnc3C(F)(F)F)C2)nc1	1 to 10	C′ (C′ = <5X)
Cc1c(F)ccc(C(F)(F)F)c1COc1ccc(-n2cnc(CO)n2)cc1	< 1	C′ (C′ = <5X)
OCc1ncn(-c2ncc(CCc3c(Cl)cccc3Cl)cn2)n1	1 to 10	C′ (C′ = <5X)
[2H]C([2H])(O)c1ncn(-c2ncc(OC([2H])([2H])c3c(Cl)cccc3C(F)(F)F)cn2)n1	1 to 10	C′ (C′ = <5X)
OCc1ccn(-c2ncc(OCc3c(Cl)cccc3C(F)(F)F)cn2)n1	< 1	C′ (C′ = <5X)
OCc1cn(-c2ncc(OCc3c(C(F)(F)F)cccc3C(F)(F)F)cn2)cn1	< 1	A′ (A′ = ≥10X)
OCc1cn(-c2ncc(OCc3c(Cl)cc(F)cc3Cl)cn2)cn1	1 to 10	C′ (C′ = <5X)
[2H]C([2H])(O)c1ccn(-c2ncc(OC([2H])([2H])c3c(Cl)cccc3Cl)cn2)n1	1 to 10	C′ (C′ = <5X)
Cc1cccc(C(F)(F)F)c1COc1cnc(-n2ncc(CO)n2)nc1	< 1	C′ (C′ = <5X)
O=C1N[C@H](CO)CN1c1ncc(OCc2c(C(F)(F)F)cccc2C(F)(F)F)cn1 [(4S)-1-(5-{[2,6-bis(trifluoromethyl)phenyl]methoxy}pyrimidin-2-yl)-4-(hydroxymethyl)imidazolidin-2-one]	> 10	C′ (C′ = <5X)
Cc1cccc(C(F)(F)F)c1COc1cnc(N2C[C@@H](CO)NC2=O)nc1 [(4S)-4-(hydroxymethyl)-1-(5-{[2-methyl-6-(trifluoromethyl)phenyl]methoxy}pyrimidin-2-yl)imidazolidin-2-one]	1 to 10	C′ (C′ = <5X)
O=C1CN(c2cnc(OCc3c(Cl)cccc3Cl)cn2)C(=O)N1 [Compound 336, 1-{5-[(2,6-dichlorophenyl)methoxy]pyrazin-2-yl}imidazolidine-2,4-dione]	1 to 10	C′ (C′ = <5X)
O=C1CN(c2ccc(OCc3c(Cl)cccc3Cl)nn2)C(=O)N1 [Compound 351, 1-{6-[(2,6-dichlorophenyl)methoxy]pyridazin-3-yl}imidazolidine-2,4-dione]	1 to 10	C′ (C′ = <5X)
